Kd data for 17 compounds are collected here from ChEMBL document CHEMBL3991601, “The target landscape of clinical kinase drugs” (Science, 2017).

Structures are written as SMILES. The source made the active and inactive calls. For most assays here, no stated cut-off is given here; in the data, actives have a measured Kd and inactives only a lower limit.

Targets include Ephrin type-A receptor 4 (Homo sapiens, UniProt P54764); Aurora kinase B (Homo sapiens, UniProt Q96GD4); Focal adhesion kinase 1 (Homo sapiens, UniProt Q05397).
For test [1], the target named is T1, Acyl-CoA dehydrogenase family member 11 (Homo sapiens, UniProt Q709F0).
T1 sequence (Q709F0 whole entry): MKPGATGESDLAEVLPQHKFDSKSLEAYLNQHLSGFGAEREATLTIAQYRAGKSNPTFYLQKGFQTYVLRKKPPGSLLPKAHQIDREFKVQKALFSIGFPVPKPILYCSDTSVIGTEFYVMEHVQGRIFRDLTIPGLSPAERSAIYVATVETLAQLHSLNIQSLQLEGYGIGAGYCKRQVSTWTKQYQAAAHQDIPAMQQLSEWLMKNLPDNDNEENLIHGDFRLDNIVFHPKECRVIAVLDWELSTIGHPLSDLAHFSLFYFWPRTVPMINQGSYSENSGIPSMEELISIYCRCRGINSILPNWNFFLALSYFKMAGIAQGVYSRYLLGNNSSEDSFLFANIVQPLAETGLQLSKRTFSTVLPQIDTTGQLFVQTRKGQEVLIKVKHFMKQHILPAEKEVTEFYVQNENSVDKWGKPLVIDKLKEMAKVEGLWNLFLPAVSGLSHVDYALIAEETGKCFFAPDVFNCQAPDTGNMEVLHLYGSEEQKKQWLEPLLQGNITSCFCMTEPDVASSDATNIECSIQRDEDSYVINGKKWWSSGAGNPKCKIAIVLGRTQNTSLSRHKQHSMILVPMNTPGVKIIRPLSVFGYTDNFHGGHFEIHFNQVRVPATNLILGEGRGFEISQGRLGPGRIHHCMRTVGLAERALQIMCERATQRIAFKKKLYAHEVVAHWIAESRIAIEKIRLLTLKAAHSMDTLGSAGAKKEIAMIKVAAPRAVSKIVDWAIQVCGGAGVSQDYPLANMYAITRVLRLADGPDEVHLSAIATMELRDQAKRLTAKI

The target of test [2] is T2, Peroxisomal acyl-coenzyme A oxidase 1 (Homo sapiens, UniProt Q15067).
T2 sequence (Q15067 whole entry): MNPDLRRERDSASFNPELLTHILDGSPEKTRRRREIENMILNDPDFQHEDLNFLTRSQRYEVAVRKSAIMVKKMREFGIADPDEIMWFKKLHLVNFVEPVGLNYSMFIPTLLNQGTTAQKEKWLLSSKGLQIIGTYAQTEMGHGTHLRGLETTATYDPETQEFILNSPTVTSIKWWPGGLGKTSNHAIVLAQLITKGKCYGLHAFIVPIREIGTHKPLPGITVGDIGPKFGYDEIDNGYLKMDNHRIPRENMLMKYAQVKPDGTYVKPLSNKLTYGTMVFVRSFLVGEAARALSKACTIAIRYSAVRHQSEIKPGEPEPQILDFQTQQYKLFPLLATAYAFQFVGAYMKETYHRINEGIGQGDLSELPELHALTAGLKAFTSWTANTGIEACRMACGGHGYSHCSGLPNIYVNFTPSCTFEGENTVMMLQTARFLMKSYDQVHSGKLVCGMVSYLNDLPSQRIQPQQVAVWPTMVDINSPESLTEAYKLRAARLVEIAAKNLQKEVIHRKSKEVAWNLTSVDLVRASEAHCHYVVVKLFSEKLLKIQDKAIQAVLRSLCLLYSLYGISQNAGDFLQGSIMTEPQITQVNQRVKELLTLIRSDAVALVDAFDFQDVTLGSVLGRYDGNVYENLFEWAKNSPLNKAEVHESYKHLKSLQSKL

A further test deals with T3, Scaffold protein ILK (Homo sapiens, UniProt Q13418).
T3 sequence (Q13418 whole entry): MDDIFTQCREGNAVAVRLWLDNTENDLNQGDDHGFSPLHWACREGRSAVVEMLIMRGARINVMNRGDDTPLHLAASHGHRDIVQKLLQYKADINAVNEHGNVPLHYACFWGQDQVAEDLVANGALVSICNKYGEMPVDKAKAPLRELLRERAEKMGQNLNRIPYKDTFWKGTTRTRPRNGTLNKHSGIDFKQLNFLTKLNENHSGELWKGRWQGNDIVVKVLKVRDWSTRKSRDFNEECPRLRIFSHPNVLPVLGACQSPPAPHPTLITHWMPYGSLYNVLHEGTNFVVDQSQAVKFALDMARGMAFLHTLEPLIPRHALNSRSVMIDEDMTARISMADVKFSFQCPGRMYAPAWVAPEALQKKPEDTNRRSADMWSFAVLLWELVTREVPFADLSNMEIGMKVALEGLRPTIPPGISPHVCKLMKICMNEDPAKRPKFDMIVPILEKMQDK

Test [3] concerns the target T4, Serine/threonine-protein kinase ULK3 (Homo sapiens, UniProt Q6PHR2).
T4 sequence (Q6PHR2 whole entry): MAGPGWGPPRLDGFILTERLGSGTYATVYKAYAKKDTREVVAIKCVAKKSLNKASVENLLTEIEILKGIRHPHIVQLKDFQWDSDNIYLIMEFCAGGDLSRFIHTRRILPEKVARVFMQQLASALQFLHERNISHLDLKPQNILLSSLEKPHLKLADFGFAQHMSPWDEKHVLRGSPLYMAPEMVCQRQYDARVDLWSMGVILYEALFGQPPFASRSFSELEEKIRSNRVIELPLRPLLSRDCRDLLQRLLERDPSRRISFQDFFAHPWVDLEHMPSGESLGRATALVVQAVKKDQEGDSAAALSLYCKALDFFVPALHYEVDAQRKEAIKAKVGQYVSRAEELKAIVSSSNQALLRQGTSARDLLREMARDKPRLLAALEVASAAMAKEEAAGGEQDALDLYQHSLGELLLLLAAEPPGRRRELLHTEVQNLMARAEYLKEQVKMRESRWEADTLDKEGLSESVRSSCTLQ

Test [4] deals with Serine/threonine-protein kinase B-raf (Homo sapiens, UniProt P15056).
The target of test [5] is Tyrosine-protein kinase Lck (Homo sapiens, UniProt P06239).
Sequence of Tyrosine-protein kinase Lck (P06239 whole entry): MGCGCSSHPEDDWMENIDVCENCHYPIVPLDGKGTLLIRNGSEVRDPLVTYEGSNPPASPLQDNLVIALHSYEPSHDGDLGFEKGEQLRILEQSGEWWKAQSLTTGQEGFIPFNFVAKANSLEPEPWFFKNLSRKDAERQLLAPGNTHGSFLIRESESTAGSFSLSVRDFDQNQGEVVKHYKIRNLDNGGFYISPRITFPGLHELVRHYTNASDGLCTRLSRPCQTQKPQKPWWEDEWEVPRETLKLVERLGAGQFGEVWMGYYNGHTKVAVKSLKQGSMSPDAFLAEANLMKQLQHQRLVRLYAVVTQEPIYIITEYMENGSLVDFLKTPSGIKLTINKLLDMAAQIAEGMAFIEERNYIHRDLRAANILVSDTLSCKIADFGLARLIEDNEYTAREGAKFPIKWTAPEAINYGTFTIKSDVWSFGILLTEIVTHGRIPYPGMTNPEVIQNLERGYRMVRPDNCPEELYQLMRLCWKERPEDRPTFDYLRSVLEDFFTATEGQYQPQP

Sequence of Ephrin type-A receptor 4 (P54764 whole entry): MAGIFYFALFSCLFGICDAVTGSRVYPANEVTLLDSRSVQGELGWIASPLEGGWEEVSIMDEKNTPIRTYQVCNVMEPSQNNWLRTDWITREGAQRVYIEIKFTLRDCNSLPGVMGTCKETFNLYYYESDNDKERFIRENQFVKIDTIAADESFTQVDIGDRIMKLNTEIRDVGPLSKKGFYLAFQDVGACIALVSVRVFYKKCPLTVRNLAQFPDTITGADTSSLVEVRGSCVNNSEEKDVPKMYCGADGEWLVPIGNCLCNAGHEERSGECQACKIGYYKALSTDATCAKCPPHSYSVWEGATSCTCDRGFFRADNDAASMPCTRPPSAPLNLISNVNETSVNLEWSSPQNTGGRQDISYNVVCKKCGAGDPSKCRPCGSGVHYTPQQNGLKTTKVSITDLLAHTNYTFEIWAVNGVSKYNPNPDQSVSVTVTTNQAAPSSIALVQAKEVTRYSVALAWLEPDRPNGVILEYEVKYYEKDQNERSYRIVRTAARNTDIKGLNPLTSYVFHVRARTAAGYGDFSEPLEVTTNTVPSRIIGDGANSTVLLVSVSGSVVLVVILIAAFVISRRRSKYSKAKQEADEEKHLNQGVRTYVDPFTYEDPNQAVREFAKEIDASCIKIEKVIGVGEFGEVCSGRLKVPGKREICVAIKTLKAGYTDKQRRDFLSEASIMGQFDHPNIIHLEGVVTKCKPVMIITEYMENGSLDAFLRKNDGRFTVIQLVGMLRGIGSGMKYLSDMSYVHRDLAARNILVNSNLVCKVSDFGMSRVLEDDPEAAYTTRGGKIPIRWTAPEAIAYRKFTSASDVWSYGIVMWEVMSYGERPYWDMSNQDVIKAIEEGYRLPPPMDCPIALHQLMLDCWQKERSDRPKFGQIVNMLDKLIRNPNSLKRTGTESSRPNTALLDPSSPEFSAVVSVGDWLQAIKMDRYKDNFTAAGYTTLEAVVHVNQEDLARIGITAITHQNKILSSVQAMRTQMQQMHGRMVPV
Sequence of Serine/threonine-protein kinase B-raf (P15056 whole entry): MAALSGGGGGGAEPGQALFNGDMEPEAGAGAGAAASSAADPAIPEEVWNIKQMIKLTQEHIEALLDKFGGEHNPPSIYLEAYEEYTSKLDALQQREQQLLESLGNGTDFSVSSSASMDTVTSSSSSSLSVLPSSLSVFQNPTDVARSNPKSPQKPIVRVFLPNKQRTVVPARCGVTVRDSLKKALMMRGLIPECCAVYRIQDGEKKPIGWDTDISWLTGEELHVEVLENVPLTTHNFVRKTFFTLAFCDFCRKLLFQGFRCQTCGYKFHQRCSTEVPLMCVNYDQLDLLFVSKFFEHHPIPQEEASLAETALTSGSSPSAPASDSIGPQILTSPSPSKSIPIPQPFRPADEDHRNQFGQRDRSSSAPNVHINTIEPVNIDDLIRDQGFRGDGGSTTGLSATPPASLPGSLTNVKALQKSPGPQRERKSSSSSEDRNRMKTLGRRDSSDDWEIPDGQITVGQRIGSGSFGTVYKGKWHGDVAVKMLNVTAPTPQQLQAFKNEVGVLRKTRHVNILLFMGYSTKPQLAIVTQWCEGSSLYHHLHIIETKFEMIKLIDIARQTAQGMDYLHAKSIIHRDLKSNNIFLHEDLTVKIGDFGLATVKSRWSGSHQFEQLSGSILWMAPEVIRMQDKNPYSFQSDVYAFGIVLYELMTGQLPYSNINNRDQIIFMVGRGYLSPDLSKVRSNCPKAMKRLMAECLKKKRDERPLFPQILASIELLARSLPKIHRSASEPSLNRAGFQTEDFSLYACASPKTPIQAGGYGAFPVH
Sequence of Aurora kinase B (Q96GD4 whole entry): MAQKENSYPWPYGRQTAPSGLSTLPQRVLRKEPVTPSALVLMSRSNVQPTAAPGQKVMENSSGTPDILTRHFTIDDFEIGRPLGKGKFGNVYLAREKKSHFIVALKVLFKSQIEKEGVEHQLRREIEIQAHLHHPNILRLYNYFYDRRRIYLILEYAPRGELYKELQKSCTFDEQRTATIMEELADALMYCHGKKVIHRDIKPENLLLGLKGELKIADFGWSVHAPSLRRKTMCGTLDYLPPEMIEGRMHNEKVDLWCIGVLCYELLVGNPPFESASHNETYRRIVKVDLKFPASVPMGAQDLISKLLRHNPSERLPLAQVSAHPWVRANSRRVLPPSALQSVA
Sequence of Focal adhesion kinase 1 (Q05397 whole entry): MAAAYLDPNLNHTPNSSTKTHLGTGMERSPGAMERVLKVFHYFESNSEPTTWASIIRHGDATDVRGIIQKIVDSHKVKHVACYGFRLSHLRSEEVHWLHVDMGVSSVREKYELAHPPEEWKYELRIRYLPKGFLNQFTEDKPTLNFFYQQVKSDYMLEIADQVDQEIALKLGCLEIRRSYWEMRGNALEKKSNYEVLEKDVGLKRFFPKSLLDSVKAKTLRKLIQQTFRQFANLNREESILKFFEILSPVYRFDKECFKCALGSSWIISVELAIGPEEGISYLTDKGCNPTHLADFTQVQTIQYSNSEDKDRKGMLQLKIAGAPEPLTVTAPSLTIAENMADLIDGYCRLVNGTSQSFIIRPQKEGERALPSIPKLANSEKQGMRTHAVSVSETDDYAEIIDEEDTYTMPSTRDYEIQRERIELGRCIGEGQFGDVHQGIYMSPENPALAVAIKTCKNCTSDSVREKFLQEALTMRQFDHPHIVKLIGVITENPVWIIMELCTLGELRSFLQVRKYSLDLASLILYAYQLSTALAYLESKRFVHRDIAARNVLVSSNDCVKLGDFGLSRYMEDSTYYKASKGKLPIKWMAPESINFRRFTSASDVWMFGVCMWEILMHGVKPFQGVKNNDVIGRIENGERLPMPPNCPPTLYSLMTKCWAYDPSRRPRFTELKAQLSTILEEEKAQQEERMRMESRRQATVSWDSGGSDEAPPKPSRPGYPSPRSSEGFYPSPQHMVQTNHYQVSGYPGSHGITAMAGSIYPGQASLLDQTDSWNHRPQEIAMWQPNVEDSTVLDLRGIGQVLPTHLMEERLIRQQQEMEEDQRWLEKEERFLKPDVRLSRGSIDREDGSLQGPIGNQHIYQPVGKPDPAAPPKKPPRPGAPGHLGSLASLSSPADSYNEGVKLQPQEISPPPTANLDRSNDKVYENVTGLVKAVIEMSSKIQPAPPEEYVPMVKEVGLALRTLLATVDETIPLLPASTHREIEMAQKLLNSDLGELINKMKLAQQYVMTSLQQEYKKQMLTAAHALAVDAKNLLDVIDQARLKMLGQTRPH

With `O=C(Nc1cccc(Cl)c1)Nc1ncc(CCNc2ncnc3ccsc23)s1` [SNS-314], the Kd (in [1]; in [2]; on Ephrin type-A receptor 4; at Scaffold protein ILK; in [3]) was > 30 µM (inactive) each time.
`Cc1cn(-c2cc(NC(=O)c3ccc(C)c(Nc4nccc(-c5cccnc5)n4)c3)cc(C(F)(F)F)c2)cn1` [NILOTINIB]: the Kd in test [1] was > 30 µM (inactive); on Scaffold protein ILK, 0.02 µM.
For `CN1CC[C@@H](c2c(O)cc(O)c3c(=O)cc(-c4ccccc4Cl)oc23)[C@@H]1CO`, the Kd (in [2]; on Aurora kinase B; in test [4]; on Ephrin type-A receptor 4; on Scaffold protein ILK; in test [5]) was > 30 µM (inactive) throughout. For the same compound, the Kd (on Focal adhesion kinase 1; in [3]) was > 30 µM (inactive) each time.
Take `C=CC(=O)N1CCC(Oc2cc3c(Nc4ccc(Cl)c(Cl)c4F)ncnc3cc2OC)CC1` [POZIOTINIB]: the Kd is > 30 µM (inactive) in [2]; > 30 µM (inactive) in test [4]; 7.06 µM (active) on Ephrin type-A receptor 4; > 30 µM (inactive) in test [5]; > 30 µM (inactive) on Focal adhesion kinase 1; > 30 µM (inactive) in test [3].
As for `Cc1ccc(-n2nc(C(C)(C)C)cc2NC(=O)NCc2cc(F)ccc2Oc2ccc3c(cnn3CCO)c2)cc1` [PEXMETINIB], the Kd at Aurora kinase B is > 30 µM (inactive); in test [4] it was 5.23 µM (active); on Ephrin type-A receptor 4 it was > 30 µM (inactive); at Scaffold protein ILK, > 30 µM (inactive); in test [5], > 30 µM (inactive); at Focal adhesion kinase 1, > 30 µM (inactive). Also, in test [3], the Kd is > 30 µM (inactive).
With `Nc1nc(N)c2nc(-c3cccc(O)c3)c(-c3cccc(O)c3)nc2n1` [TG100-115], the Kd in [1] and in test [2] was > 30 µM (inactive) throughout.
With `CN1CCN(c2ccc3nc(-c4c(N)c5c(F)cccc5[nH]c4=O)[nH]c3c2)CC1` [DOVITINIB], the Kd (in test [1]; in test [2]; at Scaffold protein ILK) was > 30 µM (inactive) in each case.
On to `Cc1cc(Nc2cc(N3CCN(C)CC3)nc(/C=C/c3ccccc3)n2)n[nH]1` [ENMD-2076], for which the Kd in test [1] is > 30 µM (inactive); in test [2] it was > 30 µM (inactive); in test [4], > 30 µM (inactive); on Ephrin type-A receptor 4, > 30 µM (inactive); on Scaffold protein ILK it was > 30 µM (inactive); in test [3], 0.476 µM (active).
Consider `Cc1nc(N)sc1-c1ccnc(Nc2ccc(N3CCOCC3)cc2)n1` [CYC-116], for which the Kd in test [1] was > 30 µM (inactive); in test [2] it was > 30 µM (inactive); in test [4], > 30 µM (inactive); at Scaffold protein ILK it was > 30 µM (inactive); on Focal adhesion kinase 1, 13 µM (active); in [3], 0.801 µM (active).
On to `C[C@@H](c1ccc2nccn2c1)n1nnc2ncc(-c3cnn(C)c3)nc21` [SAVOLITINIB], for which the Kd (in test [2]; at Aurora kinase B; in test [4]; on Ephrin type-A receptor 4; in test [5]; at Focal adhesion kinase 1) was > 30 µM (inactive) each time. In test [3], the Kd was > 30 µM (inactive).
Regarding `CCn1c(-c2nonc2N)nc2c(C#CC(C)(C)O)ncc(OC[C@H]3CCCNC3)c21` [GSK-690693], the Kd (in test [2]; on Scaffold protein ILK) was > 30 µM (inactive) throughout.
Turning to `CCc1cnn2c(NCc3ccc[n+]([O-])c3)cc(N3CCCC[C@H]3CCO)nc12` [DINACICLIB], the Kd (in [1]; in [2]; in test [4]; on Ephrin type-A receptor 4; at Scaffold protein ILK; in [3]) was > 30 µM (inactive) in each case.
Consider `COc1cc2nccc(Oc3ccc(NC(=O)Nc4cc(C)on4)c(Cl)c3)c2cc1OC` [TIVOZANIB], for which the Kd was > 30 µM (inactive) in test [1]; > 30 µM (inactive) in [2]; 5.56 µM (active) at Ephrin type-A receptor 4; > 30 µM (inactive) on Scaffold protein ILK; 2.18 µM (active) in test [5]; > 30 µM (inactive) on Focal adhesion kinase 1. Besides, the Kd in test [3] is > 30 µM (inactive).
Regarding `O=C(O)[C@]1(Cc2cccc(Nc3nccs3)n2)CC[C@@H](Oc2cccc(Cl)c2F)CC1` [MK-5108], the Kd (in [1]; in test [4]; on Ephrin type-A receptor 4; at Scaffold protein ILK; in [5]; at Focal adhesion kinase 1) was > 30 µM (inactive) each time. Moreover, the Kd in test [3] was > 30 µM (inactive).
On to `OCCn1cc(-c2cnc3nnn(Cc4ccc5ncccc5c4)c3n2)cn1` [PF-04217903], for which the Kd (in [1]; in test [2]; in [4]; on Ephrin type-A receptor 4; on Scaffold protein ILK; in test [3]) was > 30 µM (inactive) in each case.
Consider `O=c1sn(-c2cccc3ccccc23)c(=O)n1Cc1ccccc1` [TIDEGLUSIB], for which the Kd (in test [2]; on Aurora kinase B; in test [4]; on Ephrin type-A receptor 4; in [5]; on Focal adhesion kinase 1) was > 30 µM (inactive) in each case. The Kd in test [3] was > 30 µM (inactive).
Consider `C1=C/COCc2cc(ccc2OCCN2CCCC2)Nc2nccc(n2)-c2cccc(c2)COC/1` [PACRITINIB], for which the Kd is > 30 µM (inactive) in [2]; 0.641 µM (active) on Aurora kinase B; > 30 µM (inactive) in [4]; > 30 µM (inactive) at Ephrin type-A receptor 4; 6.54 µM (active) in [5]; > 30 µM (inactive) at Focal adhesion kinase 1. Moreover, the Kd in test [3] is > 30 µM (inactive).

For orientation: Kd means the concentration at which binding is half-saturated.
